Among the data in PubChem BioAssay (NCI) are TGI values, retold here.

For orientation: TGI means the concentration at which net growth stops. Read a high TGI as less potent growth arrest.

SMILES strings stand for the structures.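 How tested: cells in 96-well plates exposed to compound for 48 hours at five concentrations. TGI marks complete inhibition of growth.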 Some results are limits rather than exact numbers.

Assay in all cases: DTP human tumour cell line panel, 48 h
The subject of experiment [1] is SN12C renal.
For experiment [2], the system named is SK-MEL-2 melanoma.
In experiment [3] the test system is MALME-3M melanoma.
The test system of experiment [4] is CCRF-CEM leukemia.
In experiment [5] the test system is T-47D breast.
Experiment [6] has as its system PC-3 prostate.
Experiment [7] has as its system K-562 leukemia.
The test system of experiment [8] is SF-295 CNS.
The test system of experiment [9] is NCI/ADR-RES ovarian.
Experiment [10] deals with NCI-H460 lung.
Experiment [11] has as its system U251 CNS.
For experiment [12], the system named is HS 578T breast.
The subject of experiment [13] is OVCAR-5 ovarian.
For experiment [14], the system named is RXF 393 renal.
For experiment [15], the system named is 786-0 renal.
The subject of experiment [16] is SF-539 CNS.
Experiment [17] concerns CAKI-1 renal.
Experiment [18] concerns DU-145 prostate.
In experiment [19] the test system is KM12 colon.
The test system of experiment [20] is UO-31 renal.

Take `COc1ccc(/C=C/C(=O)/C=C/c2ccc(OC)cc2)cc1`: the TGI in experiment [1], in experiment [2], in experiment [3], in experiment [4], in [5] and in experiment [6] was greater than 100 µM throughout. For the same compound, the TGI in experiment [7] was greater than 100 µM; in experiment [8], greater than 100 µM; in experiment [9], greater than 100 µM; in experiment [10], greater than 100 µM; in [11] it was 68.6 µM; in experiment [12], greater than 100 µM. Moreover, the TGI is greater than 100 µM in experiment [13]; 36.6 µM in experiment [14]; greater than 100 µM in experiment [15]; 72.7 µM in experiment [16]; greater than 100 µM in [17]; greater than 100 µM in experiment [18]. Also, the TGI in [19] is 59.6 µM; in [20], greater than 100 µM.
